{
  "source": "patent US8933230B2",
  "about": "“Phosphorus-containing group-substituted quinoline, its preparation process, medical composition containing the compounds and application” (priority 2011, dated 2015)",
  "key": {"PDGFR-β": {"target": "T1, PDGFR-β (Mus musculus, UniProt P05622)", "T1 construct": "cell line NIH3T3 having endogenous high expression wild type PDGFR-β; endogenous in cells; host or cells: NIH3T3", "test": "PDGFR-β kinase phosphorylation in NIH3T3 cells (sandwich ELISA)", "type": "cell-based", "details": "PDGF-BB 100 ng/mL 3 min, mean value of two testing results, read-out: IC50 values in the cell, PDGFR-β", "procedure": "Inhibitory activity on the kinases in tumor cells: In this example, the compound prepared in Example 10, N1-[4-[[7-[[1-(diethoxyphosphorylmethyl)-4-piperidinyl]methoxyl]-6-methoxyl-4-quinolyl]oxyl]-3-fluorophenyl]-N1′-(4-fluorophenyl)cyclopropane-1,1-dicarboxamide is tested in tumor cells by ProQinase GmbH corporation (Breisacher Str. 117, D-79106 Freiburg, Germany. www.proqinase.com) for the inhibitory activity on the following kinases: c-KIT, c-MET, VEGFR2 and PDGFR-β. The test includes the following steps:\nFirstly, the compound according to present invention is dissolved in dimethyl sulfoxide (DMSO) to prepare a 10 mM stock solution, which is diluted serially according to the concentration range shown in Table 6:\nPDGFR-β kinase: in the test experiment of PDGFR-beta kinase phosphorylation in the cells, mouse embryo fibroblast cell line NIH3T3 having endogenous high expression wild type PDGFR-β (wild-type PDGFR-β) is used. When these cells are simulated with mouse platelet-derived growth factor BB (PDGF-BB), it causes the tyrosine of PDGFR-beta receptor kinases self-phosphorylated. NIH3T3 cells are inoculated in DMEM culture solution containing 10% FCS in a multi-well cell culture dish. The compound of the invention is added to the cells after serum overnight starvation, then the cells are cultured in a medium without serum. […]"}, "PIK3CA (H1047Y)": {"target": "T2, PIK3CA (H1047Y) (Homo sapiens, UniProt P42336, H1047Y)", "T2 construct": "purchased DiscoveRx Corporation (KinomeScan)", "T2 sequence (P42336 whole entry H1047Y)": "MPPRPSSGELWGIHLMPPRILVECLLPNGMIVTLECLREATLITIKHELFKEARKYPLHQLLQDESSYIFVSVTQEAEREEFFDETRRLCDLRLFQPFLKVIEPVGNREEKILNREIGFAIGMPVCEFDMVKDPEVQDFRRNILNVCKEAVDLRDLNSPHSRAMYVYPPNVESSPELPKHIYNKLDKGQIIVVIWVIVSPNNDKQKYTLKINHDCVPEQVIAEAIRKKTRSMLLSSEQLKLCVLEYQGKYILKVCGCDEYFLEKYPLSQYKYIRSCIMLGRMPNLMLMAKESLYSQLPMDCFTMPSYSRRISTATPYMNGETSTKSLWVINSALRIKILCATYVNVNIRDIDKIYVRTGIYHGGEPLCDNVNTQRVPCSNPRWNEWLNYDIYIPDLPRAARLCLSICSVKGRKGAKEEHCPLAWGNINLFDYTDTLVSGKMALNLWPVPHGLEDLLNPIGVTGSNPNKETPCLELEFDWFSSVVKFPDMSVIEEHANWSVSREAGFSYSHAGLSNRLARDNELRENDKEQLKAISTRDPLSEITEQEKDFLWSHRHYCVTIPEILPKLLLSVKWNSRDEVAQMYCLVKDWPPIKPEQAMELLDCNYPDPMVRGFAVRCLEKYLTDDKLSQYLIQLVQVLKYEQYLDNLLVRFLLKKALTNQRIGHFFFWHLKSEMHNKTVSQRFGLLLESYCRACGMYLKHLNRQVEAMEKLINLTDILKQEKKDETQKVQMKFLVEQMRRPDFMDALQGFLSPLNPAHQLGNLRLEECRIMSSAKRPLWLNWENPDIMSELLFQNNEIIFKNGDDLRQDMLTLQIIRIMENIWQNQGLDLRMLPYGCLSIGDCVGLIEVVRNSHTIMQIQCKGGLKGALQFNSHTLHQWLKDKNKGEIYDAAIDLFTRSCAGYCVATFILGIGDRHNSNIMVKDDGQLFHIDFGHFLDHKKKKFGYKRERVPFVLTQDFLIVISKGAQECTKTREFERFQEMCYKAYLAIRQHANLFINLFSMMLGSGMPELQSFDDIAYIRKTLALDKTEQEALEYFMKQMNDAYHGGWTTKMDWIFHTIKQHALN", "test": "KinomeScan kinase panel", "type": "binding", "procedure": "(§1) In this example, the compound prepared in Example 10, N1-[4-[[7-[[1-(diethoxyphosphorylmethyl)-4-piperidinyl]methoxyl]-6-methoxyl-4-quinolyl]oxyl]-3-fluorophenyl]-N1′-(4-fluorophenyl)cyclopropane-1,1-dicarboxamide is tested for the inhibitory effect in the 442-kinase panel of KinomeScan™ (www.kinomescan.com) from DiscoveRx Corporation (4215 Sorrento Valley Blvd, San Diego, Calif. 92121) at 1000 nM of the compound concentration, the results are shown in the following Table 5:\n(§2) For the detailed information of the screening technique, see Fabian, M. A. et al, Nat., Biotechnol. 2005, 23, 329 and Karaman, M. W. et al, Nat., Biotechnol. 2008, 26, 127. It can be seen from the following representative results that, the compound according to the present invention has significant inhibitory effect on kinases including c-Met, KDR or VEGFR2, RET, PDGFR-β, c-KIT, Flt3, MEK5, DDR1, LOK, CSF1R, EPHA7, EPHA8, EPHB6, MKNK2, BLK, HIPK4, HCK, Flt4 and the mutants thereof"}, "CDK11": {"target": "T3, CDK11 (Homo sapiens, UniProt Q9BWU1)", "T3 construct": "purchased DiscoveRx Corporation (KinomeScan)", "test": "KinomeScan kinase panel", "type": "binding", "procedure": "as §1, §2"}, "GSK3B": {"target": "T4, GSK3B (Homo sapiens, UniProt P49841)", "T4 construct": "purchased DiscoveRx Corporation (KinomeScan)", "test": "KinomeScan kinase panel", "type": "binding", "procedure": "as §1, §2"}, "PLK2": {"target": "T5, PLK2 (Homo sapiens, UniProt Q9NYY3)", "T5 construct": "purchased DiscoveRx Corporation (KinomeScan)", "test": "KinomeScan kinase panel", "type": "binding", "procedure": "as §1, §2"}, "PIP5K1A": {"target": "T6, PIP5K1A (Homo sapiens, UniProt Q99755)", "T6 construct": "purchased DiscoveRx Corporation (KinomeScan)", "test": "KinomeScan kinase panel", "type": "binding", "procedure": "as §1, §2"}, "DCAMKL3": {"target": "T7, DCAMKL3 (Homo sapiens, UniProt Q9C098)", "T7 construct": "purchased DiscoveRx Corporation (KinomeScan)", "test": "KinomeScan kinase panel", "type": "binding", "procedure": "as §1, §2"}, "EGFR(T790M)": {"target": "T8, EGFR(T790M) (Homo sapiens, UniProt P00533, T790M)", "T8 construct": "purchased DiscoveRx Corporation (KinomeScan)", "test": "KinomeScan kinase panel", "type": "binding", "procedure": "as §1, §2"}, "WEE1": {"target": "T9, WEE1 (Homo sapiens, UniProt P30291)", "T9 construct": "purchased DiscoveRx Corporation (KinomeScan service)", "test": "KinomeScan kinase panel", "type": "binding", "procedure": "as §1, §2"}, "EGFR(L858R,T790M)": {"target": "T10, EGFR(L858R,T790M) (Homo sapiens, UniProt P00533, L858R/T790M)", "T10 construct": "purchased DiscoveRx Corporation (KinomeScan)", "test": "KinomeScan kinase panel", "type": "binding", "procedure": "as §1, §2"}, "AAK1": {"target": "T11, AAK1 (Homo sapiens, UniProt Q2M2I8)", "T11 construct": "purchased DiscoveRx Corporation (KinomeScan)", "test": "KinomeScan kinase panel", "type": "binding", "procedure": "as §1, §2"}, "CDK8": {"target": "T12, CDK8 (Homo sapiens, UniProt P49336)", "T12 construct": "purchased DiscoveRx Corporation (KinomeScan)", "test": "KinomeScan kinase panel", "type": "binding", "procedure": "as §1, §2"}, "P38-beta": {"target": "T13, P38-beta (Homo sapiens, UniProt Q15759)", "T13 construct": "purchased DiscoveRx Corporation (KinomeScan panel)", "test": "KinomeScan kinase panel", "type": "binding", "procedure": "as §1, §2"}, "MRCKA": {"target": "T14, MRCKA (Homo sapiens, UniProt Q5VT25)", "T14 construct": "purchased DiscoveRx Corporation (KinomeScan)", "test": "KinomeScan kinase panel", "type": "binding", "procedure": "as §1, §2"}, "EPHA2": {"target": "T15, EPHA2 (Homo sapiens, UniProt P29317)", "T15 construct": "purchased DiscoveRx Corporation (KinomeScan)", "T15 sequence (P29317 24-976)": "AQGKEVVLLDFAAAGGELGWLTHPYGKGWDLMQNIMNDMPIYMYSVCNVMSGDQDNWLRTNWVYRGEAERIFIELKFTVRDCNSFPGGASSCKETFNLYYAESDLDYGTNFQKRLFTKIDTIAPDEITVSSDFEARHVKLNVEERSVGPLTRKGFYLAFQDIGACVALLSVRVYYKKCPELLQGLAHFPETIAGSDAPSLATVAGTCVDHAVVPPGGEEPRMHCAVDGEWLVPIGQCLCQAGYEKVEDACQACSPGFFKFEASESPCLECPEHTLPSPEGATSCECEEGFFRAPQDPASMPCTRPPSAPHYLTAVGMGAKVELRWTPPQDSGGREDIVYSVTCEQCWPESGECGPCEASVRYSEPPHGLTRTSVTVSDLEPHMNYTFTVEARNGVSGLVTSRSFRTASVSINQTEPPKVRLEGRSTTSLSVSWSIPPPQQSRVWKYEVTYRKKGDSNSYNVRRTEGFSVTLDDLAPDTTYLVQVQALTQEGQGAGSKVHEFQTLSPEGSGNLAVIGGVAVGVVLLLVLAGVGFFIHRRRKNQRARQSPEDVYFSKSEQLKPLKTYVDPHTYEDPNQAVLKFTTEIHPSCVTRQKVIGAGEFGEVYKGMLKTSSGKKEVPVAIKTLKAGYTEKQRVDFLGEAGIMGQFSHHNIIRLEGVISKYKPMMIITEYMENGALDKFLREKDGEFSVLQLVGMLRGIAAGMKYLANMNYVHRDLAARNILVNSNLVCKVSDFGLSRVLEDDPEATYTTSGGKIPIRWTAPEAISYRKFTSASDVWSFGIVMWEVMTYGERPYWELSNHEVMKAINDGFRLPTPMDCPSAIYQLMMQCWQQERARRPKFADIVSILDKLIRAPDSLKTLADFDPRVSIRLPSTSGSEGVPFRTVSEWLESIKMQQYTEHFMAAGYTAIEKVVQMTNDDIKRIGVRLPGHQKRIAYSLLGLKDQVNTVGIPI", "test": "KinomeScan kinase panel", "type": "binding", "procedure": "as §1, §2"}, "MYLK2": {"target": "T16, MYLK2 (Homo sapiens, UniProt Q9H1R3)", "T16 construct": "purchased DiscoveRx Corporation (KinomeScan)", "test": "KinomeScan kinase panel", "type": "binding", "procedure": "as §1, §2"}, "EPHA8": {"target": "T17, EPHA8 (Homo sapiens, UniProt P29322)", "T17 construct": "purchased DiscoveRx Corporation (KinomeScan)", "T17 sequence (P29322 28-1005)": "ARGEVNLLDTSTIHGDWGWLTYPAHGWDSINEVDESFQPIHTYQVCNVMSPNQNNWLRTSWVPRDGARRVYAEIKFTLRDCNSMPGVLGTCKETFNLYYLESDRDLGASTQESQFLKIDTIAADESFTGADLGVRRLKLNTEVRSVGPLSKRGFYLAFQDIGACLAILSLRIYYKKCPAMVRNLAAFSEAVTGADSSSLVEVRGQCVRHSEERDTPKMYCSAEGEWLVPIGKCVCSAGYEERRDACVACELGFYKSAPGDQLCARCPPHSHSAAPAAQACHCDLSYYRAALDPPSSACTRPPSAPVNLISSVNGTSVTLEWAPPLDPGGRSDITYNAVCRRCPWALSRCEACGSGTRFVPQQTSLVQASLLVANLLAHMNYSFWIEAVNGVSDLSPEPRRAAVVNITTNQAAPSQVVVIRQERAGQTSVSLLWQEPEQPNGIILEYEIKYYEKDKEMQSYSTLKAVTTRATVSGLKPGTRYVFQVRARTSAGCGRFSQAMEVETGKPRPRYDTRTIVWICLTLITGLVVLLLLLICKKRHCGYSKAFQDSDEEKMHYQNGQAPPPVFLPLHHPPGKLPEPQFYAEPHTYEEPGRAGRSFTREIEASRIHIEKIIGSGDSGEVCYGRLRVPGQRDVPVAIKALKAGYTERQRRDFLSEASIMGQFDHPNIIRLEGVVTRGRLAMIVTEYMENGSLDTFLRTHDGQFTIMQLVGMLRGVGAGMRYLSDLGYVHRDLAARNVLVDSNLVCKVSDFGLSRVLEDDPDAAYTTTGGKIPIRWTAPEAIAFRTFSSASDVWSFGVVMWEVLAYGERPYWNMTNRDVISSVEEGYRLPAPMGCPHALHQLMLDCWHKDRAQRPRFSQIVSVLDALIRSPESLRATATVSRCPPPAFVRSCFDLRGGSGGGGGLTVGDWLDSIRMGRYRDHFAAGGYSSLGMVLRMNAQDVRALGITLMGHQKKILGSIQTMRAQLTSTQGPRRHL", "test": "KinomeScan kinase panel", "type": "binding", "procedure": "as §1, §2"}, "MST1R": {"target": "T18, MST1R (Homo sapiens, UniProt Q04912)", "T18 construct": "purchased DiscoveRx Corporation (KinomeScan)", "T18 sequence (Q04912 25-1400)": "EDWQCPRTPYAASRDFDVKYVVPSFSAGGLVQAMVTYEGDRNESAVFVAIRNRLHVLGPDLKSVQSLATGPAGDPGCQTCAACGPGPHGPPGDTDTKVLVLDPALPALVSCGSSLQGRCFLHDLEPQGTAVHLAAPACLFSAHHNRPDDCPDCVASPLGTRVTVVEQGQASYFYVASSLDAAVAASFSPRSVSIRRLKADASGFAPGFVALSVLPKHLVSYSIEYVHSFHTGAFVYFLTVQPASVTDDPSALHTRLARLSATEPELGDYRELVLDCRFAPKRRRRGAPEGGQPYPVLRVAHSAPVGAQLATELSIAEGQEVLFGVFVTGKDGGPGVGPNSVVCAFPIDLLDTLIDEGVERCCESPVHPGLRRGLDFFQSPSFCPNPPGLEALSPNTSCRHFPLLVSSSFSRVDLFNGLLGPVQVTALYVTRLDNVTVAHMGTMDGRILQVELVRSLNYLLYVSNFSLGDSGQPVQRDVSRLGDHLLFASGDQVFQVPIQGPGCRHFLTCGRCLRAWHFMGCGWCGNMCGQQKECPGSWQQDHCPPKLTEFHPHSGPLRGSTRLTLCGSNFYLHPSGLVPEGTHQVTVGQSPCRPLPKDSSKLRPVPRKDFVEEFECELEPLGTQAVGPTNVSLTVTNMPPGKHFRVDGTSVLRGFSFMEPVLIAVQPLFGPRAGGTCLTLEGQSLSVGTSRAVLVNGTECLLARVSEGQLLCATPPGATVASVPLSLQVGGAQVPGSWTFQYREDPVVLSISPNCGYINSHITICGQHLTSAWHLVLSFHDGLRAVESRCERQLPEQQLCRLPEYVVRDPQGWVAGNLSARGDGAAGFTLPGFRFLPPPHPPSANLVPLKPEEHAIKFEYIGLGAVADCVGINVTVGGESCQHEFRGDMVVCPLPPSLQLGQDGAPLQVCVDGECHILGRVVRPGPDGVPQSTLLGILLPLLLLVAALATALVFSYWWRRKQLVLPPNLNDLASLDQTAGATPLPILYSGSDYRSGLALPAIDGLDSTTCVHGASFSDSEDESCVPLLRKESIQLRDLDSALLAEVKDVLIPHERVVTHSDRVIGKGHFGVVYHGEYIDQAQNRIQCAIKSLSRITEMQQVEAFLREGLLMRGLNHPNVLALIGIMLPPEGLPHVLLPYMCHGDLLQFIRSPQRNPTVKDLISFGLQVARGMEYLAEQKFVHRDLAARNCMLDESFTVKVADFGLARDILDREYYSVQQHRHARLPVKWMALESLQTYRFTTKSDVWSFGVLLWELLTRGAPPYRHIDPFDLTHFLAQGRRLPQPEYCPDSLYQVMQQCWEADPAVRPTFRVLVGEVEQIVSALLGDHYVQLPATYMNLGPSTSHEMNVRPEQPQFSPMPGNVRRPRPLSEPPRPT", "test": "KinomeScan kinase panel", "type": "binding", "procedure": "as §1, §2"}, "MEK4": {"target": "T19, MEK4 (Homo sapiens, UniProt P45985)", "T19 construct": "purchased DiscoveRx Corporation (KinomeScan)", "test": "KinomeScan kinase panel", "type": "binding", "procedure": "as §1, §2"}, "ADCK3": {"target": "T20, ADCK3 (Homo sapiens, UniProt Q8NI60)", "T20 construct": "purchased DiscoveRx Corporation (KinomeScan)", "T20 sequence (Q8NI60 163-647)": "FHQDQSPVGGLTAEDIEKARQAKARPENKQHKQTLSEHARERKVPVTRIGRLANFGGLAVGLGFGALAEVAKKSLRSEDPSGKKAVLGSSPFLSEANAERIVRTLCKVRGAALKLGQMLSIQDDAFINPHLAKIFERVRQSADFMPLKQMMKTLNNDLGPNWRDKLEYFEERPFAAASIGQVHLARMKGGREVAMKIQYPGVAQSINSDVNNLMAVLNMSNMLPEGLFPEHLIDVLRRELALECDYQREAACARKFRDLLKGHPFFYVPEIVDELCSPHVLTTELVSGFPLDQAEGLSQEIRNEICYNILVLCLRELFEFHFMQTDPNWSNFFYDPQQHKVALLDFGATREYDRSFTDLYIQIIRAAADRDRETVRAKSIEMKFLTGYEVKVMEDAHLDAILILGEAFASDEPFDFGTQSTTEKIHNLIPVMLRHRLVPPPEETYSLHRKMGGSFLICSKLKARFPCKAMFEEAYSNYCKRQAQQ", "test": "KinomeScan kinase panel", "type": "binding", "procedure": "as §1, §2"}, "CLK2": {"target": "T21, CLK2 (Homo sapiens, UniProt P49760)", "T21 construct": "purchased DiscoveRx Corporation (KinomeScan)", "test": "KinomeScan kinase panel", "type": "binding", "procedure": "as §1, §2"}, "MARK1": {"target": "T22, MARK1 (Homo sapiens, UniProt Q9P0L2)", "T22 construct": "purchased DiscoveRx Corporation (KinomeScan)", "test": "KinomeScan kinase panel", "type": "binding", "procedure": "as §1, §2"}, "[1]": {"target": "T23, RSK4(Kin.Dom.2-C-terminal) (Homo sapiens, UniProt Q9UK32)", "T23 construct": "Kin.Dom.2; purchased DiscoveRx Corporation (KinomeScan)", "test": "KinomeScan kinase panel", "type": "binding", "procedure": "as §1, §2"}, "VEGFR2": {"target": "VEGFR2 (Homo sapiens, UniProt P35968)", "test": "KinomeScan kinase panel", "type": "binding", "parameters": "purchased DiscoveRx Corporation (KinomeScan service)", "procedure": "as §1, §2"}, "PFPK5 (P. falciparum)": {"target": "T24, PFPK5 (P. falciparum) (Plasmodium falciparum, UniProt P61075)", "T24 construct": "purchased DiscoveRx Corporation (KinomeScan)", "test": "KinomeScan kinase panel", "type": "binding"}},
  "data": [
    {"smiles": "CCOP(=O)(CN1CCC(COc2cc3nccc(Oc4ccc(NC(=O)C5(C(=O)Nc6ccc(F)cc6)CC5)cc4F)c3cc2OC)CC1)OCC", "note": "[Example 10, N1-[4-[[7-[[1-(diethoxyphosphorylmethyl)-4-piperidinyl]methoxyl]-6-methoxyl-4-quinolyl]oxyl]-3-fluorophenyl]-N1′-(4-fluorophenyl)cyclopropane-1,1-dicarboxamide]", "values": [
      {"measurement": "IC50", "setting": "PDGFR-β", "value": 13, "unit": "nM"},
      {"measurement": "% Ctrl@1000 nM", "setting": "PIK3CA (H1047Y)", "value": 63, "unit": "% Ctrl"},
      {"measurement": "% Ctrl@1000 nM", "setting": "CDK11", "value": 67, "unit": "% Ctrl"},
      {"measurement": "% Ctrl@1000 nM", "setting": "GSK3B", "value": 100, "unit": "% Ctrl"},
      {"measurement": "% Ctrl@1000 nM", "setting": "PLK2", "value": 83, "unit": "% Ctrl"},
      {"measurement": "% Ctrl@1000 nM", "setting": "PIP5K1A", "value": 100, "unit": "% Ctrl"},
      {"measurement": "% Ctrl@1000 nM", "setting": "DCAMKL3", "value": 100, "unit": "% Ctrl"},
      {"measurement": "% Ctrl@1000 nM", "setting": "EGFR(T790M)", "value": 100, "unit": "% Ctrl"},
      {"measurement": "% Ctrl@1000 nM", "setting": "WEE1", "value": 100, "unit": "% Ctrl"},
      {"measurement": "% Ctrl@1000 nM", "setting": "EGFR(L858R,T790M)", "value": 100, "unit": "% Ctrl"},
      {"measurement": "% Ctrl@1000 nM", "setting": "AAK1", "value": 91, "unit": "% Ctrl"},
      {"measurement": "% Ctrl@1000 nM", "setting": "CDK8", "value": 76, "unit": "% Ctrl"},
      {"measurement": "% Ctrl@1000 nM", "setting": "P38-beta", "value": 87, "unit": "% Ctrl"},
      {"measurement": "% Ctrl@1000 nM", "setting": "MRCKA", "value": 100, "unit": "% Ctrl"},
      {"measurement": "% Ctrl@1000 nM", "setting": "EPHA2", "value": 4.8, "unit": "% Ctrl"},
      {"measurement": "% Ctrl@1000 nM", "setting": "MYLK2", "value": 100, "unit": "% Ctrl"},
      {"measurement": "% Ctrl@1000 nM", "setting": "EPHA8", "value": 0.15, "unit": "% Ctrl"},
      {"measurement": "% Ctrl@1000 nM", "setting": "MST1R", "value": 4, "unit": "% Ctrl"},
      {"measurement": "% Ctrl@1000 nM", "setting": "MEK4", "value": 100, "unit": "% Ctrl"},
      {"measurement": "% Ctrl@1000 nM", "setting": "ADCK3", "value": 67, "unit": "% Ctrl"},
      {"measurement": "% Ctrl@1000 nM", "setting": "CLK2", "value": 78, "unit": "% Ctrl"},
      {"measurement": "% Ctrl@1000 nM", "setting": "MARK1", "value": 100, "unit": "% Ctrl"},
      {"measurement": "% Ctrl@1000 nM", "setting": "[1]", "value": 91, "unit": "% Ctrl"},
      {"measurement": "% Ctrl@1000 nM", "setting": "VEGFR2", "value": 3.9, "unit": "% Ctrl"},
      {"measurement": "% Ctrl@1000 nM", "setting": "PFPK5 (P. falciparum)", "value": 100, "unit": "% Ctrl"}
    ]}
  ]
}
